Series [1] can be described thus: Cytotoxicity in U87-CD4-CCR5 cells (MTT). The following applies: human. The class given is cell-based. As to the method:
TZM-bl cells, U87-CD4-CCR5, murine macrophages (J774.1), and THP-1 monocytes (ATCC®TIB-202™) were grown following ATCC recommendations. Cells were seeded in a 96-well plate (10^4 cells in 200 µL culture medium) and incubated at 37 °C in a 5% CO2 atmosphere for 48 h, to allow cell adhesion before drug testing. For stimulation (THP-1 monocytes), cells were incubated with 100 nM of phorbol 12-myristate 13-acetate (PMA) for 48 h. PMA was then washed and cells were left for an additional 24 h, 48 h or11 days (only U87 cells) with growth media containing compound 696 at 10, 25, 50, and 100 µM. A vehicle for control (0.4% DMSO) and negative wells (cells in medium) was used in each test. Cell viability was then assessed by measuring the mitochondria-dependent reduction of MTT (3-(4,5-dimethylthiazol-2-yl)-2,5-diphenyltetrazolium bromide) to formazan. […] After removing the medium, formazan crystals were dissolved in 180 µL of DMSO and 20µL of MTT buffer (0.1 M glycine, 0.1 M NaCl, 0.5 mM EDTA, pH 10.5), and the absorbance at 560 nm was measured. […]
Compounds were first dissolved in DMSO to reach a concentration of 20 mM. […] The supernatant was collected every 3–4 days and analyzed for virus production by an in-house p24 capture ELISA. IC50 was calculated using “Quest Graph™ IC50 Calculator” (AAT Bioquest, Inc., https://www.aatbio.com/tools/ic50-calculator). […]

Series [2] has as its system HIV-1 reverse transcription (pol viral DNA). Put plainly: qPCR quantification of reverse transcribed viral DNA in U87-CD4-CCR5 cells. Particulars: 10 µM, cells preincubated, DNA extracted 48 h post-infection. It is filed as cell-based. In general terms: Real-time PCR tracks product formation cycle by cycle.
Protocol: U87-CD4-CCR5 cells were plated in a 24-wells plate at 1.25 × 10^5 cells per well. […] Total DNA was extracted 48 h post-infection using the AllPrep DNA/RNA Mini Kit (Qiagen, Venlo, Netherlands). […] The following program was used in the LightCycler 480 Real-Time PCR System (Roche, Basel, Switzerland): pre-incubation: 95 °C for 3 min, pre-amplification: 2 cycles of 95 °C for 15 s and 49 °C for 15 s, amplification: 40 cycles of 95 °C for 10 s, 58 °C for 20 s, 72 °C for 30 s, melting curve stage: 95 °C for 5 s, 55 °C for 1 min and then 97 °C with acquisition every 10 °C, cooling stage: 40 °C for 10 s. Serial dilution of the 8E5 cell line which contains 1 copy of HIV-1 proviral DNA per cell was used as a standard curve for viral RT products [46]. […] Results were calculated as the number of copies of Pol per copy of β-actin. Statistical analysis was performed using an unpaired, two-tailed, Mann–Whitney test with GraphPad Prism 7.0 software. Tests were performed in quadruplicate, in two independent experiments.
A further series concerns HIV-1 NL4-3 Ba-L. Briefly: microbe, parasite or virus in culture. The class given is cell-based. As to the method:
Compounds were first dissolved in DMSO to reach a concentration of 20 mM. They were further diluted to a 200 µM working stock and then further diluted to reach a starting concentration of 10 µM in the culture plate. U87-CD4-CCR5 cells were seeded in quadruplicate at 4000 cells/well in a final volume of 100 µL. The next day, 24 µL of the compound was added in serial 1:2 dilutions to the cells. Two hours later, 25 µL of infectious virus (NL4-3 Ba-L) were added to the cells with a TCID50 of 250. AZT at 10 µM was included as an inhibition control. The medium was replenished in the presence of compounds once every 3 to 4 days. The supernatant was collected every 3–4 days and analyzed for virus production by an in-house p24 capture ELISA. IC50 was calculated using “Quest Graph™ IC50 Calculator” (AAT Bioquest, Inc., https://www.aatbio.com/tools/ic50-calculator). Cytotoxicity of the compound was tested on U87-CD4-CCR5 cells in parallel by MTT assay (at the same protocol as in Sect. 3.5 but after 11 days of incubation))[39].

Series [3] can be described thus: Liver fraction stability (thin-layer chromatography). The class given is in vitro ADME, rat. The procedure:
For the determination of liver fraction stability, rat liver microsomal and cytosolic proteins were used (MOLTOX™ manufactures products, North Carolina, US). Rat liver microsomal and cytosolic proteins were used according to the manufacturer’s recommendations and the methodology previously described. […] The final concentration of 696 in the aqueous medium was 100 µM and was prepared from a stock solution in DMSO. The solutions were further homogenized and incubated at 37 °C for 1 to 4 h following the OECD recommendation for drug development. After that, thin-layer chromatography of ethyl acetate extracts was performed to evaluate the presence of metabolites.

In a further series the test system is human red blood cells. Put plainly: Red blood cell lysis assay. It is filed as cell-based. Particulars: Erythrocyte, 24hs. The procedure: Human blood (blood discarded from the blood bank) collected in sodium citrate solution (3.8%) was centrifuged at 200 × g for 10 min at 4 °C. The plasma supernatant was removed and erythrocytes were suspended in ice-cold PBS. The cells were again centrifuged at 200 × g for 10 min at 4 °C. This procedure was repeated two more times to ensure the removal of any released hemoglobin. Once the supernatant was removed after the last wash, the cells were suspended in PBS to 2% w/v red blood cell solution. […] Ten replicates for each concentration were done and incubated for 24 h at 37 °C before analysis. Complete hemolysis was attained using neat water yielding the 100% control value (positive control). The release of hemoglobin into the supernatant was determined spectrophotometrically at 405 nm using a multiplate reader VarioskanTM Flash Multimode Reader (Thermo Scientific, MA, US). Results are expressed as the percentage of total hemoglobin released in the presence of the compounds. This percentage was calculated using the equation percentage hemolysis (%) = [(A1 − A0)/(Aw)] × 100, where A1 is the absorbance at 405 nm of the test sample at t = 24 h, A0 is the absorbance at 405 nm of the test sample at t = 0 h, and Aw is the absorbance at 405 nm of the positive control (water) at t = 24 h. […] The experiments were done in quintuplicate. AmpB was used as a positive control.

Read-outs that look alike come from different tables or passages of the source. Bounds are passed on as bounds.

As usually defined, the EC50 is the concentration that produces a half-maximal response. The low end stands for greater potency, the high end for weaker potency. One may read the IC50 as the concentration that gives 50% inhibition. Turning to `Cc1ccc2c(c1)nc(-c1ccc(N(C)C)cc1)n2CCc1ccccc1` [compound 696, 2-(4-N,N-dimethylaminophenyl)-5-methyl-1-phenethyl-1H-benzimidazole], the EC50 at 11 days in series [1] is above 50000 nM. In addition, the “inhibition of HIV-1 reverse transcription (pol viral DNA by qPCR)” value in series [2] is “did not show any significant effect”. Moreover, in the series with HIV-1 NL4-3 Ba-L, the EC50/IC50 is recorded as above 21. Besides, the half-maximal inhibitory concentration (IC50) in the series on HIV-1 NL4-3 Ba-L (Human immunodeficiency virus 1, U87/CD4/CCR5, 264 h, read-out: IC50, inhibition of HIV-1 replication) is 3 µM; with HIV-1 NL4-3 Ba-L (Human immunodeficiency virus 1, U87/CD4/CCR5, read-out: IC50 in U87 (μM)) it was 2.3 ± 0.6 µM. Besides, the “inhibition of HIV-1 replication (in words)” value with HIV-1 NL4-3 Ba-L (U87-CD4-CCR5 cells, serial 1:2 dilutions from 10 µM) was “clear dose–response inhibition”. Moreover, the “inhibition of HIV-1 replication” value with HIV-1 NL4-3 Ba-L (U87-CD4-CCR5 cells, two highest concentrations tested, after 11 days) was “more than 80%”. Besides, the “selective activity between mammalian cells and antiviral activity” value with HIV-1 NL4-3 Ba-L (cytotoxicity EC50 vs antiviral IC50) is “at least 10 times”. Moreover, the “metabolic stability (in words)” value in series [3] is “high metabolic stability”. The “stability under microsomal and cytosolic fraction derived from rat liver” value in series [3] (100 µM, 37 °C, TLC, absence of new metabolites) is reported as “stable for 4 h”. The half-life at 100 µM in series [3] (rat, rat liver microsomes, read-out: Metabolic stability, half-life (t1/2)) was above 4 h. The EC50 in the series with human red blood cells is above 100000 nM.
